Key:
Format in all cases: in vivo
[1] = tested on: Women with menorrhagias and hypermenorrhea; assay: Acute treatment of menorrhagias and hypermenorrhea with onapristone
Experimental: Acute Treatment of Menorrhagias and Hypermenorrhea by One-time Administration of Onapristone Women with menorrhagias and hypermenorrhea are orally treated on a one-time basis with 200-400 mg of onapristone on the 28th day of the cycle or on the first day of bleeding. The treatment induces menstruation-like bleeding of normal intensity (about 30 ml) and duration (about 5 days). Acute Treatment of Menorrhagias and Hypermenorrhea by Repeated Administration of Onapristone Women with menorrhagias and hypermenorrhea are orally treated until bleeding ceases on the 28th day of the cycle or on the first day of bleeding with 200-400 mg/day of onapristone, at most over 10 days.

[2] = tested on: Women with dysfunctional metrorrhagias; assay: Prophylactic treatment of metrorrhagias with onapristone; settings: 3-6 cycles
Experimental: (§1) Prophylactic Treatment of Metrorrhagias by One-time Administration of Onapristone Women with dysfunctional metrorrhagias are orally treated on a one-time basis with 200-400 mg of onapristone every 28 days. […] The treatment is continued for 3-6 cycles. Prophylactic Treatment of Metrorrhagias by Repeated Administration of Onapristone Women with dysfunctional metrorrhagias are orally treated every 28 days for a maximum of 10 days with 200-400 mg/day of onapristone. […] The treatment is continued over 3-6 cycles.

[3] = tested on: Women with menorrhagias and hypermenorrhea; assay: Prophylactic treatment of menorrhagias and hypermenorrhea with onapristone; settings: 3-6 cycles
Experimental: as §1, with “Menorrhagias and Hypermenorrhea” for “Metrorrhagias”, “menorrhagias and hypermenorrhea” for “dysfunctional metrorrhagias”, “treated” for “treated on a one-time basis”, “for” for “over”

[4] = tested on: Women with dysfunctional metrorrhagias; assay: Acute treatment of metrorrhagias with onapristone; settings: one-time oral 200-400 mg, preferably luteal phase
Experimental: Acute Treatment of Metrorrhagias by One-time Administration of Onapristone Women with dysfunctional metrorrhagias are orally treated on a one-time basis with 200-400 mg of onapristone. Preferred is treatment in the luteal phase of the cycle. The treatment results in a cessation of bleeding within 2-4 days.

[5] = one-time oral 200-400 mg on 28th day of cycle or first day of bleeding
[6] = repeated oral 200-400 mg/day until bleeding ceases, at most 10 days, from 28th day of cycle or first day of bleeding
[7] = one-time oral 200-400 mg every 28 days
[8] = repeated oral 200-400 mg/day every 28 days for a maximum of 10 days

CN(C)c1ccc([C@H]2C[C@]3(C)[C@@H](CC[C@]3(O)CCCO)[C@@H]3CCC4=CC(=O)CCC4=C32)cc1 [onapristone, 11β-(4-dimethylaminophenyl)-17α-hydroxy-17β-(3-hydroxy-propyl)-13α-methyl-4,9-gonadien-3-one]
duration of induced menstruation-like bleeding [1, 5]: about 5 days | intensity of induced menstruation-like bleeding [1, 5]: about 30 ml | increased blood loss ([1]; repeated oral 200-400 mg/day until bleeding ceases, at most 10 days): prevents increased blood loss | duration of induced menstruation-like bleeding [1, 6]: about 5 days | intensity of induced menstruation-like bleeding [1, 6]: about 30 ml | duration of induced menstruation-like bleeding [2, 7]: about 5 days | intensity of induced menstruation-like bleeding [2, 7]: about 30 ml | occurrence of metrorrhagias [2, 7]: prevents the occurrence of metrorrhagias | duration of induced menstruation-like bleeding [2, 8]: about 5 days | intensity of induced menstruation-like bleeding [2, 8]: about 30 ml | occurrence of metrorrhagias [2, 8]: prevents the occurrence of metrorrhagias | duration of induced menstruation-like bleeding [3, 7]: about 5 days | intensity of induced menstruation-like bleeding [3, 7]: about 30 ml | occurrence of menorrhagias and hypermenorrhea [3, 7]: prevents the occurrence of menorrhagias and hypermenorrhea | duration of induced menstruation-like bleeding [3, 8]: about 5 days | intensity of induced menstruation-like bleeding [3, 8]: about 30 ml | occurrence of menorrhagias and hypermenorrhea [3, 8]: prevents the occurrence of menorrhagias and hypermenorrhea | cessation of bleeding within [4]: 2 to 4 days

Source: patent US6451780B1, “Progesterone antagonists for the production of pharmaceutical agents for the treatment of dysfunctional uterine bleeding” (Schering Aktiengesellschaft, priority 1995, dated 2002)
